ChEMBL document CHEMBL1201862, “PubChem BioAssay data set” (2004)
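Test compounds were applied to cells in 96-well plates for 48 hours at 5 doses. Here, GI50 denotes the concentration required for 50% inhibition of growth.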 Activity calls are given as the source filed them. Rule as the data show it: active = GI50 up to about 1.1 µM and inactive = higher.

Columns and labels:
Assay in all cases: DTP human tumour cell line panel, 48 h
COLO 205 = tested on: COLO 205
SW-620 = tested on: SW-620
NCI-H522 = tested on: NCI-H522
M14 = tested on: M14
OVCAR-5 = tested on: OVCAR-5
SK-OV-3 = tested on: SK-OV-3
SR = tested on: SR
DMS-273 = tested on: DMS-273
NCI-H226 = tested on: NCI-H226
UO-31 = tested on: UO-31
HCC 2998 = tested on: HCC 2998
A549 = tested on: A549
RPMI-8226 = tested on: RPMI-8226
ACHN = tested on: ACHN
SK-MEL-28 = tested on: SK-MEL-28
SNB-75 = tested on: SNB-75
U-251 = tested on: U-251
HOP-92 = tested on: HOP-92
DU-145 = tested on: DU-145
Hs-578T = tested on: Hs-578T

Measured: GI50

N#C/C(=C\c1cccc(Cl)c1Cl)c1ccccc1
inactive: COLO 205 > 100 µM | SW-620 > 53 µM | NCI-H522 52.8 µM | M14 74.5 µM | OVCAR-5 > 100 µM | SK-OV-3 45.7 µM | SR > 38.1 µM | DMS-273 21 µM | NCI-H226 56.2 µM | UO-31 48.1 µM | HCC 2998 > 79.3 µM | A549 66.8 µM | RPMI-8226 > 61.9 µM | ACHN 44.9 µM | SK-MEL-28 > 100 µM | SNB-75 19.1 µM | U-251 36.2 µM | HOP-92 44.5 µM

CC(C)N(C(=O)C12C3C4C5C3C1(C(=O)N(C(C)C)C(C)C)C5C42)C(C)C (centres undefined)
inactive: COLO 205 > 44.5 µM | SW-620 > 52.4 µM | NCI-H522 > 100 µM | M14 > 100 µM | OVCAR-5 > 100 µM | SK-OV-3 > 100 µM | SR 19.1 µM | DMS-273 > 41.7 µM | NCI-H226 > 100 µM | UO-31 > 100 µM | HCC 2998 > 100 µM | A549 > 58.9 µM | RPMI-8226 > 44.7 µM | ACHN > 100 µM | SK-MEL-28 > 100 µM | SNB-75 > 100 µM | U-251 > 100 µM | HOP-92 > 100 µM

CCCCCCCCCCCCCCCCCCN(C)C(COC)COP(=O)([O-])OCC[N+](C)(C)C (centres undefined)
inactive: COLO 205 1.58 µM | SW-620 6.47 µM | NCI-H522 2.69 µM | M14 3.46 µM | OVCAR-5 2.34 µM | SK-OV-3 11.2 µM | SR 2.23 µM | DMS-273 1.38 µM | NCI-H226 3.58 µM | UO-31 16 µM | HCC 2998 1.66 µM | A549 6.68 µM | DU-145 10.1 µM | Hs-578T 3.19 µM | RPMI-8226 1.83 µM | ACHN 11.9 µM | SK-MEL-28 18.5 µM | SNB-75 2.97 µM | U-251 1.97 µM | HOP-92 1.89 µM

CC(=O)OC1CC2C(C)(C)C(=O)C=C[C@]2(C)C2CCC3(C)C(c4ccoc4)[C@@H](O)[C@H]4O[C@]43[C@]12C (some centres undefined)
inactive: COLO 205 19.8 µM | SW-620 18.9 µM | NCI-H522 14.6 µM | M14 19.9 µM | OVCAR-5 25.9 µM | SK-OV-3 20.7 µM | SR 16.1 µM | DMS-273 22.1 µM | NCI-H226 18.4 µM | UO-31 17.8 µM | HCC 2998 16.1 µM | A549 36 µM | RPMI-8226 18.4 µM | ACHN 21.8 µM | SK-MEL-28 23.7 µM | SNB-75 24 µM | U-251 14.6 µM | HOP-92 20.3 µM
